Assay results as given in patent publication US20160317561A1, “USE OF D-RIBOSE FOR FATIGUED SUBJECTS” (Bioenergy Life Science, Inc., priority 2008, published 2016).

Legend:
Format in all cases: in vivo, human
[1] = Side effects of D-ribose administration in the study subjects; details: higher (3.0 g bid) or lower (1.5 g bid) doses
Excerpt: D-ribose ingestion is known to have the potential to cause gastrointestinal distress, including flatulence and diarrhea, and also can lower blood glucose.

[2] = Fatigue questionnaire / Visual Analog Scale (VAS) for fatigue in fatigued aging subjects; details: for Fatigue questionnaire: lower dose (1.5 g bid)
Method: Subjects were monitored at baseline and during the two week treatment period for their perceived fatigue activity levels. Subjects were asked to rate on a ten point scale (1=near dead to 10=excellent) the following questions: How is your energy? (1=no energy, 10=excellent); How do you sleep? (1=no sleep, 10=8 hours without waking); How is your mental clarity? (1=“brain fog”, 10=good clarity); How bad is your pain?; How is your overall sense of well being? At weeks one and two, subjects were also asked to describe their overall rating of symptoms of fatigue as compared to their symptoms at baseline. The five point scale was; much better, somewhat better; no change; somewhat worse and much worse. The investigators selected end-points of some assessments to determine whether the subjects remained the same or improved at one and two weeks. The results were represented in a Visual Analog Scale (VAS) for fatigue. Nine subjects completed the VAS forms of subjective estimate of tiredness (Appendix B) on a scale of 1 (completely disagree) to 7 (completely agree).

[3] = Sub-maximal cardiopulmonary exercise (CPX) treadmill testing in fatigued aging subjects; details: for Hr to METS ratio at AT, mean change / Net Energy Expenditure at AT, mean change / O2 Uptake Slope, mean change / VE Slope, mean change / VO2 at AT, mean change: 3.0 g D-ribose bid orally
Method: The pilot study was performed enrolling 20 aging subjects, greater than 45 years of age, who were self-perceived as fatigued and tired as their customary daily state for at least one month, with no strenuous exercise or physical labor to account for the fatigue. No subjects had documented histories of heart/lung or metabolism/endocrine disease, as set out more fully below in the inclusion criteria. The causes of fatigue in aging subjects is unknown. It can be hypothesized that the causes are mental, since lowered cognition and feeling of wellbeing is also common in aging persons. The aforementioned studies of unhealthy persons or persons exercising strenuously found a dose of five to eight grams of D-ribose, taken two to four times per day was recommended to raise or maintain ATP levels. Lower amounts such as in this study, were not found adequate for those subjects. For the healthy, but sedentary and aging subjects for this study, it was expected that they were already at an optimum ATP level. Two doses of oral D-ribose at 1.5 grams or 3.0 grams bid were selected to test the hypothesis that raising ATP levels with D-ribose could have some benefit in improving fatigue. Each subject consumed the oral D-ribose for two weeks, dissolved in a small amount of water. Study assessments were done at baseline, and at one and two weeks during the trial. The lower dose study was continued an additional two weeks. The subjective and objective assessment parameters included: sub-maximal exercise performance, resting and sub-maximal energy expenditure, the SF-36 Quality of Life Assessment and a subjective questionnaire for evaluating fatigue.
Energy expenditure was calculated both at rest (BMR) and also at the anaerobic threshold (AT) using standard formulae incorporated into CPX-based software. Net energy expenditure was determined by subtracting resting values from those calculated at the subject's AT. In addition, the completed activity log was used to determine potential changes in cumulative (daily and weekly) energy expenditure throughout the first and second weeks while on D-ribose. Further, work efficiency was determined by calculating the reciprocal of aerobic power or the VO2 to WR ratio, as computed at the anaerobic threshold.
The formula for calculation of energy expenditure at the anaerobic threshold was based, in part, on the actual measured resting energy expenditure (RER) and VO2 at that level of exercise, knowing that a subject can sustain a steady state at the initial phase of the AT, which represents a particular phase of exercise whereby energy metabolism due to an increase in oxygen consumption resulting in a reduction in tissue oxygen perfusion shifts to an anaerobic instead of an oxidative phosphorylation. The AT interval varies from person to person depending on physical condition or training. Individuals who are not trained and relatively deconditioned have a low AT, as compared to elite endurance athletes having a high AT. At the AT, fuel mix for skeletal muscle metabolism is somewhat balanced. This point occurs in the range between 40% to 60% of the maximum VO2 attained. For example, assuming that equal amounts of fats and carbohydrates are oxidized at an RER of 0.85 just prior to AT onset, energy expenditure can be calculated using the formula VO2(L/min)×4.862 kcal/min for each liter of oxygen consumed. Likewise, if an individual was at an RER of 0.89 under steady state conditions, their absolute VO2 in L/min would be multiplied by a factor of 4.911. Net energy expenditure would be calculated subtracting the subject's resting energy expenditure (REE) or BMR. METS or net metabolic equivalents was also used to express the subject's activity level at their AT.
For this study, a ramping incremental treadmill exercise protocol was followed. […] The treadmill exercise was increased from 0 mph to 3.0 mph and the elevation increased from 0 to 12%, over the test time of six minutes. […]

[4] = SF-36 Quality of Life Questionnaire in fatigued aging subjects
Excerpt: The SF-36 Quality of Life Questionnaire was also used. Subjects were asked to fill out a questionnaire on the normal activities that they participated in. An example of the SF-36 Quality of Life Questionnaire is presented in Appendix A. These activities included household chores, walking, yard work and whether the subject routinely climbed stairs. Additionally, subjects were asked how many days in the past week they felt good; missed work or routine chores because of fatigue; how tired they felt and their state on awakening in the morning. In order to understand what the self-perception of fatigue (described as fatigue, tiredness or loss of vitality) indicates, it is helpful to look at the questions asked in SF-36 Quality of Life questionnaire (Appendix A). The SF-36 questionnaire is applied particularly to evaluating physician-prescribed therapies, but the gender-neutral, generic, coherent and easily administered questions are useful to evaluate any discrete cohort of subjects in the categories desired. […] The first three categories as listed are directed to the subject's self-perceived status. The remaining categories are directed to the extent that status (whatever that status may be), affects the subject's functioning roles in several categories.

O=C[C@H](O)[C@H](O)[C@H](O)CO [D-ribose]
Side effects of D-ribose administration [1]: No subjects in this study, at either the higher or the lower doses, experienced any side effects
Fatigue questionnaire ([2]; continued for an additional two weeks (four weeks), FIG. 7): Continued improvement
Fatigue questionnaire ([2]; two weeks): slight reduction in fatigue
Decrease in self-perceived levels of fatigue (average) ([2]; six grams of D-ribose per day (3.0 g bid), two weeks): 50%
Hr to METS ratio at AT, mean change ([3]; Week 1 vs baseline): −3.00 +/− 2.83
Net Energy Expenditure at AT, mean change ([3]; Week 1 vs baseline): 9.32 +/− 7.67
O2 Uptake Slope, mean change ([3]; Week 1 vs baseline): 0.17 +/− 0.19
VE Slope, mean change ([3]; Week 1 vs baseline): −2.26 +/− 1.69
VO2 at AT, mean change ([3]; Week 1 vs baseline): 1.53 +/− 0.90
Hr to METS ratio at AT, mean change ([3]; Week 2 vs baseline): −3.67 +/− 3.27
Net Energy Expenditure at AT, mean change ([3]; Week 2 vs baseline): 16.23 +/− 6.13
O2 Uptake Slope, mean change ([3]; Week 2 vs baseline): 0.24 +/− 0.15
VE Slope, mean change ([3]; Week 2 vs baseline): −2.44 +/− 2.24
VO2 at AT, mean change ([3]; Week 2 vs baseline): 2.13 +/− 0.78
Increase in resting energy expenditure at the AT onset ([3]; 3.0 g bid orally, end of two weeks): 8.2%
Rise in net energy expenditure at the AT onset ([3]; 3.0 g bid orally, end of two weeks, p<0.0005): 32%
Increase in VO2 at the AT onset ([3]; 3.0 g bid orally, end of two weeks, p<0.001): 18%
Increase in heart rate at the AT onset ([3]; 3.0 g bid orally, end of two weeks, p=0.012): 9.2%
Decrease in heart rate to METS ratio ([3]; 3.0 g bid orally, two weeks): 11.7%
Decrease in oxygen pulse indexed to inspiratory drive ([3]; 3.0 g bid orally, two weeks): 8.9%
Decrease in ventilatory efficiency slope ([3]; 3.0 g bid orally, two weeks): 8.5%
Increase in change in oxygen pulse times change in expired CO2 at AT ([3]; 3.0 g bid orally, two weeks): 60.8%
Average calorie burned from fat substrate at the AT ([3]; 3.0 g bid orally, two weeks, most subjects): did not change significantly
CPX parameters (objective measures) ([3]; lower dose (1.5 g bid), two weeks to four weeks): positive trend
Response to the SF-36 Questionnaire ([4]; lower dose (1.5 g bid), four weeks): improvement in symptoms of general health, vitality and mental outlook
SF-36 Bodily pain (interference with activities) ([4]; results at two weeks): significant improvement
SF-36 Emotional function role ([4]; results at two weeks): significant improvement
SF-36 Social function role ([4]; results at two weeks): significant improvement
SF-36 Vitality ([4]; results at two weeks, initially low at 40th percentile): significant improvement
SF-36 Physical competence ([4]; results at two weeks, initially near normal): slight improvement
SF-36 General health ([4]; results at two weeks, initially normal): slight improvement
SF-36 Role physical function ([4]; results at two weeks, initially slightly subnormal): significant improvement
Social functionality, emotional wellbeing, mental health and mental competence (questionnaire) ([4]; two weeks, mental categories based on additional questions not in SF-36): increases
